According to ChEMBL document CHEMBL1129148, “Synthesis and biological evaluation of 4-alkoxy substituted trinems. Part I” (1996):
≈ marks a conversion by molar mass, not a printed value.

Key:
Format in all cases: functional
[1] = tested on: Bacteroides fragilis; test: Compound was tested for in vitro antibacterial activity against Bacteroides fragilis 2017
[2] = tested on: Clostridium perfringens; test: Compound was tested for in vitro antibacterial activity against Clostridium perfringens 615E
[3] = tested on: Enterococcus faecalis; test: Compound was tested for in vitro antibacterial activity against […] faecalis 850
[4] = tested on: Escherichia coli; test: Compound was tested for in vitro antibacterial activity against Escherichia coli 1850E
[5] = tested on: Escherichia coli; test: Compound was tested for in vitro antibacterial activity against Escherichia coli 1919 a beta-lactamase producing strain(TEM 1) with permeable outer membrane
[6] = tested on: Pseudomonas aeruginosa; test: Compound was tested for in vitro antibacterial activity against Pseudomonas aeruginosa 1911
[7] = tested on: Staphylococcus aureus; test: Compound was tested for in vitro antibacterial activity against Staphylococcus aureus 853E penicillinase (PCI) producing strain
[8] = tested on: Streptococcus pneumoniae; test: Compound was tested for in vitro antibacterial activity against Streptococcus pneumoniae 3512

Compound | MIC [1] | MIC [2] | MIC [3] | MIC [4] | MIC [5] | MIC [6] | MIC [7] | MIC [8]
C[C@@H](O)[C@H]1C(=O)N2C(C(=O)[O-])=C3[C@@H](OCCO)CCC[C@@H]3[C@H]12.[K+] | 0.1 µg/mL | 0.06 µg/mL | 8 µg/mL | 0.5 µg/mL | 0.5 µg/mL | > 32 µg/mL | 0.5 µg/mL | 0.1 µg/mL
COCCO[C@H]1CCC[C@@H]2C1=C(C(=O)[O-])N1C(=O)[C@H]([C@@H](C)O)[C@@H]21.[K+] | 32 µg/mL | > 32 µg/mL | > 32 µg/mL | > 32 µg/mL | 32 µg/mL | > 32 µg/mL | 8 µg/mL | 8 µg/mL
C[C@@H](O)[C@H]1C(=O)N2C(C(=O)[O-])=C3[C@@H](OCCF)CCC[C@@H]3[C@H]12.[K+] | 0.2 µg/mL | ≤ 0.01 µg/mL | 4 µg/mL | 4 µg/mL | 0.5 µg/mL | > 32 µg/mL | 0.2 µg/mL | 0.03 µg/mL
COCCO[C@H]1CCC[C@H]2C1=C(C(=O)[O-])N1C(=O)[C@H]([C@@H](C)O)[C@@H]21.[K+] | 0.1 µg/mL | 0.03 µg/mL | 2 µg/mL | 2 µg/mL | 0.5 µg/mL | > 32 µg/mL | 0.5 µg/mL | 0.2 µg/mL
C[C@@H](O)[C@H]1C(=O)N2C(C(=O)[O-])=C3[C@@H](OCCC#N)CCC[C@@H]3[C@H]12.[K+] | 0.2 µg/mL | 0.03 µg/mL | 2 µg/mL | 4 µg/mL | 1 µg/mL | > 32 µg/mL | 0.5 µg/mL | 0.06 µg/mL
C[C@@H](O)[C@H]1C(=O)N2C(C(=O)O)=C(SCCNC=N)C[C@H]12 [IMIPENEM ANHYDROUS] | 0.06 µg/mL (≈ 0.2 µM) | 0.03 µg/mL (≈ 0.1 µM) | 2 µg/mL (≈ 6.68 µM) | 0.5 µg/mL (≈ 1.67 µM) | 0.5 µg/mL (≈ 1.67 µM) | 4 µg/mL (≈ 13.4 µM) | 0.1 µg/mL (≈ 0.334 µM) | < 0.01 µg/mL
CO[C@H]1CCC[C@H]2C1=C(C(=O)[O-])N1C(=O)[C@H]([C@@H](C)O)[C@@H]21.[Na+] [SANFETRINEM SODIUM] | 0.06 µg/mL | 0.03 µg/mL | 1 µg/mL | 0.5 µg/mL | 0.5 µg/mL | > 32 µg/mL | 0.2 µg/mL | ≤ 0.01 µg/mL
